According to patent US7939265B2, “Agents for and method of quantifying binding” (Badrilla Limited, priority 2004, dated 2011):
Where no end group is shown, it is not given here. [ ]: non-standard residue; d: D form. pS = N[C@@H](COP(=O)(O)O)C(=O)O

Molecular target: polyclonal antiserum SERCA PS-38
Test: Peptide inhibition of antiserum SERCA PS-38 binding to antigen
Parameters: species or system rabbit
Conditions: competition against polyclonal antiserum SERCA PS-38
Description: Phosphorylated Ca^2+-ATPase peptide on Ser-38 residue (^31KLKERWGS (PO4)NEL^41) was prepared by the CaMKII phosphorylation of peptide ^31KLKERWGSNEL^41. The phosphopeptide was purified to homogeneity by reverse phase high performance liquid chromatography. Peptide was conjugated to keyhole limpet haemocyanin (KLH) using carbodiimide cross linkage (3) and dialysed extensively against buffer (50 mM Tris-HCl pH 7.2, 150 mM NaCl). Adult New Zealand White rabbits were immunised with ˜150 μg KLH and attached peptide at 6 weeks intervals and immune serum collected 11 days after immunisations. Serum was prepared and stored at −70° C. A polyclonal antiserum is described herein: SERCA PS-38 raised to the phosphorylated peptide.
The phosphorylation of SERCA2 on Ser-38 has been described as a regulatory feature capable of very significant activation of Ca2+-ATPase activity. This site, although unique to SERCA2, is contained within a segment of the protein which is highly conserved between SERCA1 and SERCA2 particularly from residue 39 onwards. […] By analogy with SERCA1, for which two high resolution structures exist the Ser-38 site of phosphorylation on SERCA2 is predicted to be in a surface exposed, highly mobile segment of the protein. […]

Row | Substance | IC50 (read-out: inhibition of antibody binding to antigen (IC50)) [nM] | interference with antibody:antigen recognition
1 | 31KLKERWGS(PO4)NEL41 (KLKERWG[pS]NEL; UniProt P16615 31-41, looked up, fragment) [phosphopeptide] | 18 | –
2 | 31KLKERWGSNEL41 (UniProt P16615 31-41, looked up, fragment) [dephosphorylated peptide, equivalent dephosphorylated SERCA2a Ser-38 peptide] | – | unable to interfere with antibody:antigen recognition
